According to publication PMC6271228, “Diethyl 2-(Phenylcarbamoyl)phenyl Phosphorothioates: Synthesis, Antimycobacterial Activity and Cholinesterase Inhibition” (Molecules, 2014):
Converted amounts (≈) assume the structure as drawn. Where two headings read alike, the source gives them in different places.

Key:
[1] = test system: Mycobacterium tuberculosis My 331/88 (H37Rv); experiment: microbe, parasite or virus in culture; format: cell-based
BChE from equine serum = target: T1, BChE from equine serum (Equus caballus, UniProt P81908); experiment: BChE inhibition, modified Ellman's method; format: biochemical
T1 construct: butyrylcholinesterase from equine serum; from tissue; host or cells: equine serum
From the text: (§1) The ability of the tested compounds to inhibit AChE from electric eel (Electrophorus electricus L.) and BChE from equine serum was screened in vitro using modified Ellman’s method for the evaluation of cholinesterase activity. […] […]. These two standards were chosen due to their different structures. […]. The choice of these drugs with different mechanism of action can provide relevant results. All tested compounds expressed a good inhibitory activity with IC50s in low micromolar values.
(§2) The IC50 values were determined using the spectrophotometric Ellman’s method, which is a simple, rapid and direct method to determine the SH and -S-S- group content in proteins. This method is widely used for cholinesterase activity evaluation and screening of the efficiency of cholinesterase inhibitors. Cholinesterase activity is measured indirectly by quantifying the concentration of 5-thio-2-nitrobenzoic acid (TNB) ion formed in the reaction between the thiol reagent 5,5'-dithiobis-2-nitrobenzoic acid (DTNB) and thiocholine, a product of substrate hydrolysis by cholinesterase (i.e., acetylthiocholine, ATCh). All the tested compounds were dissolved in dimethyl sulfoxide (concentration 0.01 M) and then diluted in demineralised water (concentration 0.001 M and 0.0001 M). The Ellman’s method is slightly modified according to Zdrazilova et al.. Acetylcholinesterase was obtained from electric eel (Electrophorus electricus L.) and butyrylcholinesterase from equine serum.

AChE from electric eel = target: T2, AChE from electric eel (Electrophorus electricus, UniProt O42275); experiment: AChE inhibition, modified Ellman's method; format: biochemical, Electrophorus electricus L.
T2 construct: Acetylcholinesterase was obtained from electric eel (Electrophorus electricus L.); from tissue; host or cells: electric eel (Electrophorus electricus L.)
From the text: as §1, §2

[2] = test system: M. kansasii 6509/96 (clinically isolated); experiment: microbe, parasite or virus in culture; format: cell-based; settings: Mycobacterium kansasii, 37 °C
M. avium My 330/88 = experiment: microbe, parasite or virus in culture; format: cell-based, Mycobacterium avium; settings: for MIC: Mycobacterium avium, 37 °C
M. kansasii My 235/80 = experiment: microbe, parasite or virus in culture; format: cell-based, Mycobacterium kansasii; settings: for MIC: Mycobacterium kansasii, 37 °C; for MICs for M. kansasii 235/80: all time points
[3] = 336 h, 14 d, 37 °C, read-out: MIC Mtb 331/88 (H37Rv) 14 d
[4] = 504 h, 21 d, 37 °C, read-out: MIC Mtb 331/88 (H37Rv) 21 d
[5] = 168 h, 7 d, read-out: MIC M. kansasii 6509/96 7 d
[6] = 336 h, 14 d, read-out: MIC M. kansasii 6509/96 14 d
[7] = 504 h, 21 d, read-out: MIC M. kansasii 6509/96 21 d
[8] = MY330/88, 336 h, 14 d, read-out: MIC M. avium 330/88 14 d
[9] = MY330/88, 504 h, 21 d, read-out: MIC M. avium 330/88 21 d
[10] = MY235/80, 168 h, 7 d, read-out: MIC M. kansasii 235/80 7 d
[11] = MY235/80, 336 h, 14 d, read-out: MIC M. kansasii 235/80 14 d
[12] = MY235/80, 504 h, 21 d, read-out: MIC M. kansasii 235/80 21 d

T2 sequence (O42275 24-633): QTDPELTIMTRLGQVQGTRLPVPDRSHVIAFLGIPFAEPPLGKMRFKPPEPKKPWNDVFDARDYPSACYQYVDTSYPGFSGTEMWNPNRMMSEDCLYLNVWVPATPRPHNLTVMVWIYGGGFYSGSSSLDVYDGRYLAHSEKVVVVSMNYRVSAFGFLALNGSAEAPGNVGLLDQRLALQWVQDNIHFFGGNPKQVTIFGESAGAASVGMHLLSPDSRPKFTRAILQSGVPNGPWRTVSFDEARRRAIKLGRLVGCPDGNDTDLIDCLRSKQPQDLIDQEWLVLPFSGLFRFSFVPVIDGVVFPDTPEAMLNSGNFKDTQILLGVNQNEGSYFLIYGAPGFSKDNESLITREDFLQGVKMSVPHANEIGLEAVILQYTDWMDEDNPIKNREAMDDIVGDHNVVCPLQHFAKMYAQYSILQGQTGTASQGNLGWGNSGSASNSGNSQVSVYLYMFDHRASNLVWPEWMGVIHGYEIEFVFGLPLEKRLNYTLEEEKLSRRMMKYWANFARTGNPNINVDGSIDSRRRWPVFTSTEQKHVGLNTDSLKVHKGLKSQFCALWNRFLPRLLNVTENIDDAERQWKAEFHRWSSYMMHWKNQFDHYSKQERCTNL
T1 sequence (P81908 whole entry): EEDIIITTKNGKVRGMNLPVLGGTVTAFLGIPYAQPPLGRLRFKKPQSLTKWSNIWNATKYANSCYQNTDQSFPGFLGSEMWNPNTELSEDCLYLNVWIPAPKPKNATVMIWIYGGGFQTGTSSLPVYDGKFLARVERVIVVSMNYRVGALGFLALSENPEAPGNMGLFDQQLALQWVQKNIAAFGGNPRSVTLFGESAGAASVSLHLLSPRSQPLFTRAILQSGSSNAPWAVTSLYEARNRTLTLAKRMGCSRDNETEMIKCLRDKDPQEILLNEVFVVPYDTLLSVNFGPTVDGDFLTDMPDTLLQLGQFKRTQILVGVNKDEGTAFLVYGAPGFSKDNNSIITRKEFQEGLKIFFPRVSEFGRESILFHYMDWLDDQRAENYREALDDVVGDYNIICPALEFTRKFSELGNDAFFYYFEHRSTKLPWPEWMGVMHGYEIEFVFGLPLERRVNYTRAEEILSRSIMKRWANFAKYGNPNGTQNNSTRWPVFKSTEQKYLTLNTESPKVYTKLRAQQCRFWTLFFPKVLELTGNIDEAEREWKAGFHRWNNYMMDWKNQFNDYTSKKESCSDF

Row | SMILES | MIC [1, 3] [µM] | MIC [1, 4] [µM] | MIC ([1]; read-out: MIC against Mtb) [µM] | IC50 (BChE from equine serum) [µM] | IC50 (AChE from electric eel) [µM] | MIC [2, 5] [µM] | MIC [2, 6] [µM] | MIC [2, 7] [µM] | MIC (M. avium My 330/88; [8]) [µM] | MIC (M. avium My 330/88; [9]) [µM] | MIC values against M. avium (M. avium My 330/88; all MIC values (14 and 21 d)) [µM] | MIC (M. kansasii My 235/80; [10]) [µM] | MIC (M. kansasii My 235/80; [11]) [µM] | MIC (M. kansasii My 235/80; [12]) [µM] | MICs for M. kansasii 235/80 (M. kansasii My 235/80) [µM]
1 | CCOP(=S)(OCC)Oc1ccc(Br)cc1C(=O)Nc1ccc(C(F)(F)F)cc1 [1i, O-(4-Bromo-2-{[4-(trifluoromethyl)phenyl]carbamoyl}phenyl) O,O-diethyl phosphorothioate] | 8 (≈ 4.1 µg/mL) | 8 (≈ 4.1 µg/mL) | 8 (≈ 4.1 µg/mL) | 20.2 ± 1.6 | 11.2 ± 0.02 | 32 (≈ 16.4 µg/mL) | 62.5 (≈ 32 µg/mL) | 125 (≈ 64 µg/mL) | 125 (≈ 64 µg/mL) | 125 (≈ 64 µg/mL) | ≤ 250 | 32 (≈ 16.4 µg/mL) | 62.5 (≈ 32 µg/mL) | 125 (≈ 64 µg/mL) | ≤ 250
2 | CCOP(=S)(OCC)Oc1ccc(Cl)cc1C(=O)Nc1cccc(Cl)c1 [1j, O-{4-Chloro-2-[(3-chlorophenyl)carbamoyl]phenyl} O,O-diethyl phosphorothioate] | 32 (≈ 13.9 µg/mL) | 62.5 (≈ 27.1 µg/mL) | – | 14.8 ± 0.15 | 9.97 ± 0.24 | 250 (≈ 109 µg/mL) | 500 (≈ 217 µg/mL) | 500 (≈ 217 µg/mL) | > 500 | > 500 | – | 250 (≈ 109 µg/mL) | 250 (≈ 109 µg/mL) | 500 (≈ 217 µg/mL) | –
3 | CCOP(=S)(OCC)Oc1ccc(Cl)cc1C(=O)Nc1ccc(Cl)cc1 [1k, O-{4-Chloro-2-[(4-chlorophenyl)carbamoyl]phenyl} O,O-diethyl phosphorothioate] | 32 (≈ 13.9 µg/mL) | 32 (≈ 13.9 µg/mL) | – | 12.7 ± 0.1 | 9.78 ± 0.11 | 62.5 (≈ 27.1 µg/mL) | 125 (≈ 54.3 µg/mL) | 125 (≈ 54.3 µg/mL) | 500 (≈ 217 µg/mL) | 500 (≈ 217 µg/mL) | – | 32 (≈ 13.9 µg/mL) | 62.5 (≈ 27.1 µg/mL) | 62.5 (≈ 27.1 µg/mL) | ≤ 250
4 | CCOP(=S)(OCC)Oc1ccc(Cl)cc1C(=O)Nc1ccc(Cl)c(Cl)c1 [1l, O-{4-Chloro-2-[(3,4-dichlorophenyl)carbamoyl]phenyl} O,O-diethyl phosphorothioate] | 8 (≈ 3.75 µg/mL) | 8 (≈ 3.75 µg/mL) | 8 (≈ 3.75 µg/mL) | 17.4 ± 0.5 | 9.33 ± 0.11 | 125 (≈ 58.6 µg/mL) | 250 (≈ 117 µg/mL) | 250 (≈ 117 µg/mL) | > 500 | > 500 | – | 125 (≈ 58.6 µg/mL) | 250 (≈ 117 µg/mL) | 500 (≈ 234 µg/mL) | –
5 | CCOP(=S)(OCC)Oc1ccc(Cl)cc1C(=O)Nc1cccc(Br)c1 [1m, O-{2-[(3-Bromophenyl)carbamoyl]-4-chlorophenyl} O,O-diethyl phosphorothioate] | 16 (≈ 7.66 µg/mL) | 16 (≈ 7.66 µg/mL) | – | 15.1 ± 1.3 | 14.1 ± 0.2 | 125 (≈ 59.8 µg/mL) | 500 (≈ 239 µg/mL) | 500 (≈ 239 µg/mL) | 500 (≈ 239 µg/mL) | 500 (≈ 239 µg/mL) | – | 125 (≈ 59.8 µg/mL) | 500 (≈ 239 µg/mL) | > 500 | –
6 | CCOP(=S)(OCC)Oc1ccc(Cl)cc1C(=O)Nc1ccc(Br)cc1 [1n, O-{2-[(4-Bromophenyl)carbamoyl]-4-chlorophenyl} O,O-diethyl phosphorothioate] | 32 (≈ 15.3 µg/mL) | 32 (≈ 15.3 µg/mL) | – | 15.1 ± 0.1 | 9.32 ± 0.06 | 250 (≈ 120 µg/mL) | 500 (≈ 239 µg/mL) | 500 (≈ 239 µg/mL) | 500 (≈ 239 µg/mL) | 500 (≈ 239 µg/mL) | – | 250 (≈ 120 µg/mL) | 500 (≈ 239 µg/mL) | 500 (≈ 239 µg/mL) | –
7 | NNC(=O)c1ccncc1 [INH, isoniazid, reference compound] | 0.5 to 1 (≈ 0.0686 to 0.137 µg/mL) | 1 (≈ 0.137 µg/mL) | – | – | – | 2 to 4 (≈ 0.274 to 0.549 µg/mL) | 4 (≈ 0.549 µg/mL) | 4 to 8 (≈ 0.549 to 1.1 µg/mL) | > 250 | > 250 | – | > 250 | > 250 | > 250 | –
8 | Nc1ccc(C(=O)O)c(O)c1 [PAS, para-aminosalicylic acid, reference compound] | 62.5 (≈ 9.57 µg/mL) | 62.5 (≈ 9.57 µg/mL) | – | – | – | 32 (≈ 4.9 µg/mL) | 125 (≈ 19.1 µg/mL) | 500 (≈ 76.6 µg/mL) | 32 (≈ 4.9 µg/mL) | 125 (≈ 19.1 µg/mL) | – | 125 (≈ 19.1 µg/mL) | 1000 (≈ 153 µg/mL) | > 1000 | –
